In patent publication US12383567B2, “Use of cannabinoids in the treatment of epilepsy” (Jazz Pharmaceuticals Research UK Limited, priority 2017, dated 2025):

Assay: Drug-drug interaction between cannabidiol (CBD) and tacrolimus in an epilepsy patient (clinical trial, open label phase)
Type: in vivo, human
Experimental: The patient was a person with refractory epilepsy receiving the immunosuppressant drug tacrolimus for interstitial nephritis.
The patient had been stable on tacrolimus at a dose of 5 mg twice per day for a year prior to entry into a clinical trial on the use of CBD to treat childhood-onset epilepsy. At the time of entry into the study their blood level of tacrolimus was between 3.9 and 8.4 ng/mL.
The patient was initially randomized to the sesame oil placebo arm of the trial, during this phase there was no change in the levels of tacrolimus or serum creatine.
The dose of tacrolimus was reduced repeatedly while receiving CBD as described in FIG. 1. A dose of 0.5 mg twice per day (a 10-fold reduction) was finally reached.

[1] = during the time the subject was taking CBD with tacrolimus

C=C(C)[C@@H]1CCC(C)=C[C@H]1c1c(O)cc(CCCCC)cc1O [CBD, Cannabidiol]
blood urea nitrogen (BUN) change [1]: significant increase | serum creatine levels change [1]: significant increase | tacrolimus toxicity (open label phase, receiving CBD concurrently with tacrolimus): signs of tacrolimus toxicity
